# Patent publication US20260256792A1, “TREATMENT OF CHRONIC SPONTANEOUS URTICARIA BY ADMINISTERING (R)-2-[3-[4-AMINO-3-(2-FLUORO-4-PHENOXY-PHENYL)PYRAZOLO[3,4-D]PYRIMIDIN-1-YL]PIPERIDINE-1-CARBONYL]-4-METHYL-4-[4-(OXETAN-3-YL)PIPERAZIN-1-YL]PENT-2-ENENITRILE” (priority 2023, published 2026)
# Test system: moderate-to-severe chronic spontaneous urticaria (CSU)
# Experiment: Phase 2 CSU study: hives severity score over 7 days (HSS7)
# Format: in vivo, human
# Design: key to HSS7 Change from baseline, Median / HSS7, Median / HSS7, Max / HSS7 Change from baseline, Q1 / HSS7 Change from baseline, Q3 / HSS7 Change from baseline, Max: 7-day sum of daily hive scores, each 0 = none to 3 = >50 hives
# Details: for median reduction in HSS7 at Week 12: omalizumab-naïve population; for HSS7, Mean (SD) / HSS7, Median: End of Study; for HSS7 change from baseline at Week 12, LS Mean / HSS7 change from baseline at Week 12, LS Mean Diff vs. placebo: ANCOVA
# From the text: The study comprises a 12 week, randomized, double-blind, placebo-controlled, multi-center, dose-ranging efficacy and safety phase, followed by a 40 week open label extension (OLE) phase (see FIG. 1).
# The study consists of three phases and an optional OLE phase.
# The UAS is a validated PRO measure. The daily UAS is the sum of the daily Hive Severity Score (HSS, ranging from 0=None to 3=more than 50 hives) and the daily Itch Severity Score (ISS, ranging from 0=None to 3=intense), the 2 key urticaria signs and symptoms which are wheals and itch. The daily UAS scores range from 0 to 6 point/day. Daily UAS scores are summed over 7-day period to create the UAS7, ranging from 0 to 42, and are composed of the HSS7 and ISS7 components. […] Patients were to complete the UAS using the e-diary. The e-diary was to be used once daily on the same time of each day recording of participant's answers to the urticaria activity score over 7 days (UAS7) questionnaire. For participants who entered the OLE phase, their answers to the UAS7 questionnaire were also to be collected from Week 20 to Week24 and from Week 48 to Week 52.
# The following secondary endpoints were to be analyzed using the same approach as for the primary endpoint: • Change from baseline in UAS7 at Week 4 • Change from baseline in UAS7 at Week 12 (for US and US reference countries) • Change from baseline in ISS7 at Week 12 (except US and US reference countries) • Change from baseline in HSS7 at Week 12
# [1] = 400 mg TID, Week 9, ITT Population
# [2] = 400 mg TID, Week 9, Omalizumab-Naïve Population
# [3] = 400 mg TID, Week 10, ITT Population
# [4] = 400 mg TID, Week 11, ITT Population
# [5] = 400 mg TID, Week 12, ITT population
# [6] = 400 mg TID, patients with prior omalizumab use, last block under Week 12, double-blind period, WOCF imputation
# [7] = 400 mg BID, Omalizumab-Naïve Population
# [8] = 400 mg QPM, Omalizumab-Naïve Population
# [9] = 400 mg TID, Patients with Prior Omalizumab Use
# [10] = Omalizumab-Naïve Population with Outlier Removed from Analysis, 400 mg BID
# [11] = Omalizumab-Naïve Population with Outlier Removed from Analysis, 400 mg QPM
# [12] = Omalizumab-Naïve Population with Outlier Removed from Analysis, 400 mg TID
# [13] = Omalizumab-naïve Population, 400 mg BID
# [14] = Omalizumab-naïve Population, 400 mg QPM
# [15] = Omalizumab-naïve Population, 400 mg TID
smiles,measurement,setting,value
"CC(C)(C=C(C#N)C(=O)N1CCC[C@@H](n2nc(-c3ccc(Oc4ccccc4)cc3F)c3c(N)ncnc32)C1)N1CCN(C2COC2)CC1 [rilzabrutinib, (R)-2-[3-[4-amino-3-(2-fluoro-4-phenoxy-phenyl)pyrazolo[3,4-d]pyrimidin-1-yl]piperidine-1-carbonyl]-4-methyl-4-[4-(oxetan-3-yl)piperazin-1-yl]pent-2-enenitrile]",HSS7 Postbaseline Mean (SD),"400 mg TID, Week 8, Omalizumab-Naïve Population",6.12 (4.80)
same,HSS7 Postbaseline Mean (SD),"400 mg TID, Week 8, Omalizumab-Naïve Population with Outlier Removed from Analysis",6.12 (4.80)
same,HSS7 % Change difference for rilzabrutinib vs.placebo LS Mean (95% CI),[1],−29.14 %
same,HSS7 % Change from baseline LS Mean (SE),[1],−53.06 (6.70) %
same,HSS7 Change difference for rilzabrutinib vs.placebo LS Mean (95% CI),[1],"−3.67 (−6.21, −1.13)"
same,HSS7 Change from baseline LS Mean (SE),[1],−7.79 (0.94)
same,HSS7 Postbaseline Mean (SD),[1],5.43 (4.93)
same,HSS7 % Change difference for rilzabrutinib vs.placebo LS Mean (95% CI),[2],−27.94 %
same,HSS7 Postbaseline Mean (SD),[2],5.88 (4.98)
same,HSS7 Postbaseline Mean (SD),"400 mg TID, Week 9, Omalizumab-Naïve Population with Outlier Removed from Analysis",5.88 (4.98)
same,HSS7 % Change difference for rilzabrutinib vs.placebo LS Mean (95% CI),[3],−28.54 %
same,HSS7 % Change from baseline LS Mean (SE),[3],−56.54 (6.68) %
same,HSS7 Change difference for rilzabrutinib vs.placebo LS Mean (95% CI),[3],"−3.55 (−6.13, −0.97)"
same,HSS7 Change from baseline LS Mean (SE),[3],−8.15 (0.96)
same,HSS7 Postbaseline Mean (SD),[3],5.39 (5.05)
same,HSS7 Postbaseline Mean (SD),"400 mg TID, Week 10, Omalizumab-Naïve Population",5.87 (5.06)
same,HSS7 Postbaseline Mean (SD),"400 mg TID, Week 10, Omalizumab-Naïve Population with Outlier Removed from Analysis",5.87 (5.06)
same,HSS7 % Change difference for rilzabrutinib vs.placebo LS Mean (95% CI),[4],−28.42 %
same,HSS7 % Change from baseline LS Mean (SE),[4],−54.96 (6.95) %
same,HSS7 Change difference for rilzabrutinib vs.placebo LS Mean (95% CI),[4],"−3.55 (−6.14, −0.95)"
same,HSS7 Change from baseline LS Mean (SE),[4],−8.09 (0.96)
same,HSS7 Postbaseline Mean (SD),[4],5.60 (5.41)
same,HSS7 Postbaseline Mean (SD),"400 mg TID, Week 11, Omalizumab-Naïve Population",6.17 (5.40)
same,HSS7 Postbaseline Mean (SD),"400 mg TID, Week 11, Omalizumab-Naïve Population with Outlier Removed from Analysis",6.17 (5.40)
same,HSS7 % Change difference for rilzabrutinib vs.placebo LS Mean (95% CI),[5],−29.54 %
same,HSS7 % Change from baseline LS Mean (SE),[5],−57.27 (7.06) %
same,HSS7 Change difference for rilzabrutinib vs.placebo LS Mean (95% CI),[5],"−3.42 (−6.11, −0.74)"
same,HSS7 Change from baseline LS Mean (SE),[5],−8.31 (1.00)
same,HSS7 Postbaseline Mean (SD),[5],4.92 (4.89)
same,HSS7 Postbaseline Mean (SD),"400 mg TID, Week 12, Omalizumab-Naïve Population",5.23 (4.86)
same,HSS7 Postbaseline Mean (SD),"400 mg TID, Week 12, Omalizumab-Naïve Population with Outlier Removed from Analysis",5.23 (4.86)
same,median reduction in HSS7 at Week 12,400 mg TID,−7.64
same,median reduction in HSS7 at Week 12,"400 mg TID, outlier removed",−7.89
same,"HSS7, Max",[6],8.2
same,"HSS7, Min",[6],4.0
same,"HSS7 Change from baseline, Max",[6],0.0
same,"HSS7 Change from baseline, Mean (SD)",[6],−2.00 (2.83)
same,"HSS7 Change from baseline, Median",[6],−2.00
same,"HSS7 Change from baseline, Min",[6],−4.0
same,"HSS7 Change from baseline, Q1",[6],−4.00
same,"HSS7 Change from baseline, Q3",[6],0.00
same,"HSS7 Percent change from baseline, Max",[6],0.0%
same,"HSS7 Percent change from baseline, Mean (SD)",[6],−25.00 (35.36) percent
same,"HSS7 Percent change from baseline, Median",[6],−25.00%
same,"HSS7 Percent change from baseline, Min",[6],−50.0%
same,"HSS7 Percent change from baseline, Q1",[6],−50.00%
same,"HSS7 Percent change from baseline, Q3",[6],0.00%
same,"HSS7, Mean (SD)",[7],7.80 (8.76)
same,"HSS7, Median",[7],7.00
same,"HSS7, Mean (SD)",[8],6.13 (9.09)
same,"HSS7, Median",[8],1.40
same,"HSS7, Mean (SD)","400 mg TID, Omalizumab-Naïve Population",10.00 (5.79)
same,"HSS7, Mean (SD)",[9],6.08 (2.95)
same,"HSS7, Median",[9],6.08
same,"HSS7 at Week 12, Mean","ITT Population, 400 mg BID",7.08
same,"HSS7 at Week 12, Median","ITT Population, 400 mg BID",6.00
same,"HSS7 change from baseline at Week 12, Mean","ITT Population, 400 mg BID",−7.81
same,"HSS7 change from baseline at Week 12, Median","ITT Population, 400 mg BID",−5.30
same,"HSS7 change from baseline at Week 12, LS Mean","ITT Population, 400 mg BID",−6.78
same,"HSS7 change from baseline at Week 12, LS Mean Diff vs. placebo","ITT Population, 400 mg BID",−1.89
same,"HSS7 at Week 12, Median","ITT Population, 400 mg QPM",8.75
same,"HSS7 change from baseline at Week 12, Mean","ITT Population, 400 mg QPM",−5.05
same,"HSS7 change from baseline at Week 12, Median","ITT Population, 400 mg QPM",−4.00
same,"HSS7 change from baseline at Week 12, LS Mean","ITT Population, 400 mg QPM",−4.75
same,"HSS7 change from baseline at Week 12, LS Mean Diff vs. placebo","ITT Population, 400 mg QPM",0.14
same,"HSS7 at Week 12, Mean","ITT Population, 400 mg TID",4.92
same,"HSS7 at Week 12, Median","ITT Population, 400 mg TID",3.50
same,"HSS7 change from baseline at Week 12, Mean","ITT Population, 400 mg TID",−9.62
same,"HSS7 change from baseline at Week 12, Median","ITT Population, 400 mg TID",−9.00
same,"HSS7 change from baseline at Week 12, LS Mean","ITT Population, 400 mg TID",−8.31
same,"HSS7 change from baseline at Week 12, LS Mean Diff vs. placebo","ITT Population, 400 mg TID",−3.42
same,"HSS7 at Week 12, Mean",[10],7.52
same,"HSS7 at Week 12, Median",[10],7.00
same,"HSS7 change from baseline at Week 12, Mean",[10],−7.09
same,"HSS7 change from baseline at Week 12, Median",[10],−4.50
same,"HSS7 change from baseline at Week 12, LS Mean",[10],−6.56
same,"HSS7 change from baseline at Week 12, LS Mean Diff vs. placebo",[10],−2.20
same,"HSS7 at Week 12, Median",[11],8.58
same,"HSS7 change from baseline at Week 12, Mean",[11],−4.85
same,"HSS7 change from baseline at Week 12, Median",[11],−4.00
same,"HSS7 change from baseline at Week 12, LS Mean",[11],−4.57
same,"HSS7 change from baseline at Week 12, LS Mean Diff vs. placebo",[11],−0.22
same,"HSS7 at Week 12, Mean",[12],5.23
same,"HSS7 at Week 12, Median",[12],4.08
same,"HSS7 change from baseline at Week 12, Mean",[12],−8.77
same,"HSS7 change from baseline at Week 12, Median",[12],−8.00
same,"HSS7 change from baseline at Week 12, LS Mean",[12],−7.89
same,"HSS7 change from baseline at Week 12, LS Mean Diff vs. placebo",[12],−3.54
same,"HSS7 at Week 12, Mean",[13],7.52
same,"HSS7 at Week 12, Median",[13],7.00
same,"HSS7 change from baseline at Week 12, Mean",[13],−7.09
same,"HSS7 change from baseline at Week 12, Median",[13],−4.50
same,"HSS7 change from baseline at Week 12, LS Mean",[13],−6.52
same,"HSS7 change from baseline at Week 12, LS Mean Diff vs. placebo",[13],−2.12
same,"HSS7 at Week 12, Median",[14],8.58
same,"HSS7 change from baseline at Week 12, Mean",[14],−4.85
same,"HSS7 change from baseline at Week 12, Median",[14],−4.00
same,"HSS7 change from baseline at Week 12, LS Mean",[14],−4.49
same,"HSS7 change from baseline at Week 12, LS Mean Diff vs. placebo",[14],−0.09
same,"HSS7 at Week 12, Mean",[15],5.23
same,"HSS7 at Week 12, Median",[15],4.08
same,"HSS7 change from baseline at Week 12, Mean",[15],−8.77
same,"HSS7 change from baseline at Week 12, Median",[15],−8.00
same,"HSS7 change from baseline at Week 12, LS Mean",[15],−7.64
